Test results as given in paper PMC9939319 (Acta Pharmaceutica Sinica. B, 2022).

Target: TRPA1 (Homo sapiens, UniProt O75762)
Assay: calcium flux in TRPA1-overexpressing HEK-293 cells
Assay type: cell-based

Sequence of TRPA1 (O75762 whole entry): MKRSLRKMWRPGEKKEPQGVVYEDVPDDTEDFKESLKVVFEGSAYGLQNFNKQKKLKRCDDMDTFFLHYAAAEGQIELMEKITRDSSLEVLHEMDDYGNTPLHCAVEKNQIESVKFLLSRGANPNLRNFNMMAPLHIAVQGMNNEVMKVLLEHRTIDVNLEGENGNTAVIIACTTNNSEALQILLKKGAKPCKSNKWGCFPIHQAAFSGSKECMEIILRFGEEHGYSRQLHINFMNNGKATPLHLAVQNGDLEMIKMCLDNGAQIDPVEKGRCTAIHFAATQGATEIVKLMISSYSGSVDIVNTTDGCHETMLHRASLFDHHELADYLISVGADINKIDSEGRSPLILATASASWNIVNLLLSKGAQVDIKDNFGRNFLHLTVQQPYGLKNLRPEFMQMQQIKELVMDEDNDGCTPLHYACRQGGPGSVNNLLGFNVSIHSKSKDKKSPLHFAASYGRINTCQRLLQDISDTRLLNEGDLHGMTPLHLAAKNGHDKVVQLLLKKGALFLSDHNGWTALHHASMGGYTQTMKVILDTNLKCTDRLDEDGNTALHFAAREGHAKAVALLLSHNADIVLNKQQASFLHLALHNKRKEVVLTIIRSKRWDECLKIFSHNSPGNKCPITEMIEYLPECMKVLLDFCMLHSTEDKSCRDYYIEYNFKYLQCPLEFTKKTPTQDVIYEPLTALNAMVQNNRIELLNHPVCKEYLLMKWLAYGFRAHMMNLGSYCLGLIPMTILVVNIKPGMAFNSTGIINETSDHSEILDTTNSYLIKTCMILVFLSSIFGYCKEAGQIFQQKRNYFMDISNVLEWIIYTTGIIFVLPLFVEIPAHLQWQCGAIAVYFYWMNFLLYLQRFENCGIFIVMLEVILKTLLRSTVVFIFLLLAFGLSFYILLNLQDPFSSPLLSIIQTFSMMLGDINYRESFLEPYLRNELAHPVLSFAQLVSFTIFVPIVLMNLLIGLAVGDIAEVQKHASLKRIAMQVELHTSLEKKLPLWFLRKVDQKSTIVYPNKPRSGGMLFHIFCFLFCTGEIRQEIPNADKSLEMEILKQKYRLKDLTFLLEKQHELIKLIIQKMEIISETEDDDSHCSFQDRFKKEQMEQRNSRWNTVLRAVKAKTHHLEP

- EC50: 225 µM
SMILES: CC(C)(C)c1ccc(O)c(C(C)(C)C)c1 [2,4-DTBP]
